Results from publication PMC3025038 (Organic & biomolecular chemistry, 2009).

Legend:
[1] = mice; liver, spleen, kidney bone marrow, or brain tissue; cited from earlier work
KOP receptors [2] = target: T1, KOP receptors (Homo sapiens, UniProt P41145); assay type: binding
KOP receptors [3] = target: T1, KOP receptors; assay: biochemical; assay type: biochemical; settings: for Emax: read-out: KOP Emax

T1 sequence (P41145 whole entry): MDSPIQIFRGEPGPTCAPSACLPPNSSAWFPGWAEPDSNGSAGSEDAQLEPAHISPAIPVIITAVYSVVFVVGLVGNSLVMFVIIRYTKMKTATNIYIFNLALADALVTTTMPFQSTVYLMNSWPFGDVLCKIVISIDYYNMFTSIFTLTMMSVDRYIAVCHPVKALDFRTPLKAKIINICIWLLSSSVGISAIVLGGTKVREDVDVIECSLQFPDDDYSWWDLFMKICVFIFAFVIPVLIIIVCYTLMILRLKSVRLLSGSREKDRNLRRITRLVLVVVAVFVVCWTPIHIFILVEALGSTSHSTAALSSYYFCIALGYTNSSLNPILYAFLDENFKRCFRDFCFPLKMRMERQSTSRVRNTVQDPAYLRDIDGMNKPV

SMILES	histological differences versus control animals [1]	fold increase in affinity for KOP receptors (KOP receptors [2]) [fold]	fold less active than 1 as agonists (KOP receptors [3])	functional character at KOPs (in words) (KOP receptors [3])	Emax (KOP receptors [3]) [%]
COC(=O)[C@@H]1C[C@H](OC(C)=O)C(=O)[C@H]2[C@@]1(C)CC[C@H]1C(=O)O[C@H](c3ccoc3)C[C@]21C [Compound 1, salvinorin A]	no histological differences	–	–	–	–
COC(=O)[C@@H]1C[C@H](OC(C)=O)C(=O)[C@H]2[C@@]1(C)CC[C@H]1C(=O)O[C@H](C(=O)N3CCCCC3)C[C@]21C [Compound 21, (2S,4aR,6aR,7R,9S,10aS,10bR)-methyl 9-acetoxy-6a,10b-dimethyl-4,10-dioxo-2-(piperidine-1-carbonyl)dodecahydro-1H-benzo[f]isochromene-7-carboxylate]	–	9	approximately 100 fold	selective partial agonists	85 ± 13
COC(=O)[C@@H]1C[C@H](OC(C)=O)C(=O)[C@H]2[C@@]1(C)CC[C@H]1C(=O)O[C@H](C(=O)N3CCSCC3)C[C@]21C [Compound 23, (2S,4aR,6aR,7R,9S,10aS,10bR)-methyl 9-acetoxy-6a,10b-dimethyl-4,10-dioxo-2-(thiomorpholine-4-carbonyl)dodecahydro-1H-benzo[f]isochromene-7-carboxylate]	–	–	approximately 100 fold	selective partial agonists	57 ± 6
